The text below walks through data of patent US12269811B2, “Synthesis of omecamtiv mecarbil” (Amgen Inc., priority 2017, dated 2025).

Format in all cases: physicochemical
Series [1] is described as follows: Dynamic vapor sorption (DVS) isothermal plot of PMEC salt forms. As to conditions: FIG. 1; for DVS weight increase onset: relative humidity at onset of weight increase. As for the experimental part: The DVS weight increase onset for each salt was measured as noted—35% relative humidity (RH) for the hemi-sulfate; 50% RH for the acetate; and 65% RH for the phosphate hydrate. The phosphate hydrate is termed phosphate or hemi-phosphate and the hemi-sulfate is termed sulfate or hemi-sulfate in the figure.

The nature of series [2]: Solubility in isopropanol.
Series [3] can be described thus: Piperazine levels upon storage.

≈ marks a conversion by molar mass, not a printed value.

Consider `COC(=O)N1CCNCC1` [hemi-sulfate, methyl piperazine-1-carboxylate], for which the “DVS weight increase onset” value in series [1] is recorded as 35 % RH. In the case of `COC(=O)N1CCN(Cc2cccc(NC(=O)Nc3ccc(C)nc3)c2F)CC1` [omecamtiv mecarbil], in series [2] (20° C.), the solubility in isopropanol result is “about 10 mg/mL”. In series [2] (20 °C, organic solvent or mixture), the solubility (as a rule, the dissolved amount per volume that the medium holds) was around 12 mg/mL (≈ 29.9 mM).

As to `COC(=O)N1CCNCC1` [acetate, methyl piperazine-1-carboxylate], the “DVS weight increase onset” value in series [1] is on record as 50 % RH.

As for `COC(=O)N1CCNCC1` [PMEC freebase, methyl piperazine-1-carboxylate], the “piperazine levels upon storage” value in series [3] (storage at 25° C.) is “up to 18 LC area %”.

`COC(=O)N1CCNCC1` [PMEC phosphate hydrate, methyl piperazine-1-carboxylate]: the hygroscopicity entry in series [1] (compared with the sulfate and acetate salts) was “less hygroscopic than the corresponding sulfate and acetate salt”. Also, in series [1], the “DVS weight increase onset” value amounted to 65 % RH. Further, the “piperazine levels upon storage” value in series [3] (upon storage, level <0.4 GC area %) is recorded as “do not increase upon storage”.
